What all share (assay type): binding
Assay [1] concerns the target T1, Recombinant human integrin α5β1 (Homo sapiens, UniProt P05556+P08648).
T1 construct: purchased R&D Systems 3230-A5
The assay is described as follows: Solid Phase Receptor Assay (SPRA) for α5β1 function. Conditions: plate-bound human fibronectin. As for the experimental part:
A. Solid Phase Receptor Assay (SPRA) for α5β1 Function
Wells were washed 3 times with 150 μL TBS+ and then 150 μL of blocking buffer (TBS+ with 1% bovine serum albumin, Sigma A7906) was added. The plate was incubated for 1 hr at 37° C. and then washed 3× with TBS+ buffer. […] Compounds were diluted to 20 μM and then 1 μL was added to each well of the plate according to a standard template with each sample repeated in triplicate. After incubation for two hours at room temperature, the plate was washed 3× with 150 μL of TBS+ buffer. To each well, 50 μL of biotinylated anti-α5 antibody (R&D Systems, BAF1864) at 0.5 μg/mL in TBS+/0.1% BSA were added and the plate covered and incubated for 1 hr at room temperature. After washing the plate 3× with 150 μL of TBS+ buffer, 50 μL of streptavidin-conjugated horseradish peroxidase (R&D Systems, DY998) diluted in TBS+ blocking buffer were added to the wells and the plate incubated for 20 min at room temperature. The plate was washed 3× with TBS+ buffer followed by 50 μL of room temperature TMB substrate (Sigma, T4444) added to each well in the dark and the plate incubated for 25 min at room temperature. 25 μL of 1.0 M phosphoric acid was added as a stop solution and the plates were read at 450 nm using a Spectramax plate reader.

Assay [2] deals with T2, Recombinant human integrin αVβ3 (Homo sapiens, UniProt P05106+P06756).
T2 construct: purchased R&D Systems 3050-AV
The assay is described as follows: Solid Phase Receptor Assay for αVβ3 function. The settings on record: plate-bound human vitronectin; read-out: αVβ3 SPRA IC50. Here is the method: C. […] Wells were washed 3 times with 150 μL TBS+ and then 150 μL of blocking buffer (TBS+ with 1% bovine serum albumin, Sigma A7906) was added. The plate was incubated for 1 hr at 37° C. and then washed 3× with TBS+ buffer. […] Compounds were diluted to 20 μM and then 1 μL was added to each well of the plate according to a standard template with each sample repeated in triplicate. After incubation for two hours at room temperature, the plate was washed 3× with 150 μL of TBS+ buffer. To each well, 50 μL of biotinylated anti-αV antibody (R&D Systems, BAF1219) at 0.5 μg/mL in TBS+/0.1% BSA were added and the plate covered and incubated for 1 hr at room temperature. After washing the plate 3× with 150 μL of TBS+ buffer, 50 μL of streptavidin-conjugated horseradish peroxidase (R&D Systems, DY998) diluted in TBS+ blocking buffer were added to the wells and the plate incubated for 20 min at room temperature. The plate was washed 3× with TBS+ buffer followed by 50 μL of TMB substrate (Sigma, T4444) added to each well in the dark and the plate was incubated for 25 min at room temperature. 25 μL of 1.0 M phosphoric acid was added as a stop solution and the plates were read at 450 nm using a Spectramax plate reader.

Assay [3] deals with T3, Recombinant human integrin αVβ5 (Homo sapiens, UniProt P06756+P18084).
T3 construct: purchased R&D Systems 2528-AV
The assay is described as follows: Solid Phase Receptor Assay (SPRA) for αVβ5 function. Conditions: plate-bound human vitronectin. Here is the method:
D. Solid Phase Receptor Assay (SPRA) for αVβ5 Function
Wells were washed 3 times with 150 μL TBS+ and then 150 μL of blocking buffer (TBS+ with 1% bovine serum albumin, Sigma A7906) was added. The plate was incubated for 1 hr at 37° C. and then washed 3× with TBS+ buffer. […] Compounds were diluted to 20 μM and then 1 μL was added to each well of the plate according to a standard template with each sample repeated in triplicate. After incubation for two hours at room temperature, the plate was washed 3× with 150 μL of TBS+ buffer. To each well, 50 μl of biotinylated anti-αV antibody (R&D Systems, BAF1219) at 0.5 μg/mL in TBS+/0.1% BSA at 0.5 μg/mL were added and the plate covered and incubated for 1 hr at room temperature. After washing the plate 3× with 150 μL of TBS+ buffer, 50 μL of streptavidin-conjugated horseradish peroxidase (R&D Systems, DY998) diluted in TBS+ blocking buffer were added to the wells and the plate incubated for 20 min at room temperature. The plate was washed 3× with TBS+ buffer followed by 50 μL of TMB substrate (Sigma T4444) added to each well in the dark and the plate incubated for 5 min at room temperature. 25 μL of 1.0 M phosphoric acid was added as a stop solution and the plates were read at 450 nm using a Spectramax plate reader.

Assay [4] concerns the target T4, Recombinant human integrin αVβ8 (Homo sapiens, UniProt P06756+P26012).
T4 construct: purchased R&D Systems 4135-AV
The assay is described as follows: Solid Phase Receptor Assay for αVβ8 function. Conditions: plate-bound human LAP; read-out: αVβ8 SPRA IC50. Here is the method: F. Solid Phase Receptor Assay (SFRA) for αVβ8 Function
Wells were washed 3 times with 150 μL TBS+ and then 150 μL of blocking buffer (TBS+ with 1% bovine serum albumin, Sigma A7906) was added. The plate was incubated for 1 hr at 37° C. and then washed 3× with TBS+. […] Compounds were diluted to 20 μM and 1 μL was added to each well of the plate according to a standard template with each sample repeated in triplicate. After incubation for two hours at room temperature, the plate was washed 3× with 150 μL of TBS+. To each well, 50 μL of biotinylated anti-αV antibody (R&D Systems, BAF1219) at 1 μg/mL in TBS+/0.1% BSA were added and the plate was covered and incubated for 1 hr at room temperature. After washing the plate 3× with 150 μL of TBS+ buffer, 50 μL of streptavidin-conjugated horseradish peroxidase (R&D Systems, DY998) diluted in TBS+ blocking buffer were added to the wells and the plate incubated for 20 min at room temperature. The plate was washed 3× with TBS+ followed by 50 μL of TMB substrate (Sigma T4444) added to each well in the dark and the plate incubated for 10 min at room temperature. 25 μL of 1.0 M phosphoric acid was added as a stop solution and the plates were read at 450 nm using a Spectramax plate reader.

Molecules are shown by their SMILES.

By IC50 is commonly meant the concentration that gives 50% inhibition.

T2 sequence (P06756 31-992 limits assumed): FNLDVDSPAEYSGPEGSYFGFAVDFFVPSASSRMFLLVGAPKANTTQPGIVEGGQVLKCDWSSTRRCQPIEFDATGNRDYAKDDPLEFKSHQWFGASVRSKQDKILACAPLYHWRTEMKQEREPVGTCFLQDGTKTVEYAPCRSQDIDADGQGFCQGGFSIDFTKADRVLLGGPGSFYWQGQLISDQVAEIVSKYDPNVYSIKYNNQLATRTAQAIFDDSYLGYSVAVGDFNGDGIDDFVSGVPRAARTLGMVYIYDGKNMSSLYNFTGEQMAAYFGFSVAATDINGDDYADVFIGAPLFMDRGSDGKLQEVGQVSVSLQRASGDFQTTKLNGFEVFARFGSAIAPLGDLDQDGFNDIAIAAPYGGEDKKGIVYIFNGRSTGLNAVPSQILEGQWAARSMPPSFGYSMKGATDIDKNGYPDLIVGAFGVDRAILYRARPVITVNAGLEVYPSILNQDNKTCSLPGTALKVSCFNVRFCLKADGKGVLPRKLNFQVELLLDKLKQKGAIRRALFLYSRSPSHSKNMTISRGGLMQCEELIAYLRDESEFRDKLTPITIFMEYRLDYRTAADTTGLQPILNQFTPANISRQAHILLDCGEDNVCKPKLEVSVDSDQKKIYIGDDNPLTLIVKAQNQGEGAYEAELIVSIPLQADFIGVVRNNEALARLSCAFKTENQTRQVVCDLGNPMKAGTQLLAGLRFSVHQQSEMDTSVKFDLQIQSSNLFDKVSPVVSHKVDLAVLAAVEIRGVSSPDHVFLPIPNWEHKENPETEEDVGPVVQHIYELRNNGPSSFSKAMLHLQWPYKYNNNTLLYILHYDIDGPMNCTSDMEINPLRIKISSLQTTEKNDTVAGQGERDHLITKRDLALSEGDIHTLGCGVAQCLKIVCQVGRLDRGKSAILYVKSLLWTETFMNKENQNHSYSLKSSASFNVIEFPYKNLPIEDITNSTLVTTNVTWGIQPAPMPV
T2 sequence (P05106 27-718 limits assumed): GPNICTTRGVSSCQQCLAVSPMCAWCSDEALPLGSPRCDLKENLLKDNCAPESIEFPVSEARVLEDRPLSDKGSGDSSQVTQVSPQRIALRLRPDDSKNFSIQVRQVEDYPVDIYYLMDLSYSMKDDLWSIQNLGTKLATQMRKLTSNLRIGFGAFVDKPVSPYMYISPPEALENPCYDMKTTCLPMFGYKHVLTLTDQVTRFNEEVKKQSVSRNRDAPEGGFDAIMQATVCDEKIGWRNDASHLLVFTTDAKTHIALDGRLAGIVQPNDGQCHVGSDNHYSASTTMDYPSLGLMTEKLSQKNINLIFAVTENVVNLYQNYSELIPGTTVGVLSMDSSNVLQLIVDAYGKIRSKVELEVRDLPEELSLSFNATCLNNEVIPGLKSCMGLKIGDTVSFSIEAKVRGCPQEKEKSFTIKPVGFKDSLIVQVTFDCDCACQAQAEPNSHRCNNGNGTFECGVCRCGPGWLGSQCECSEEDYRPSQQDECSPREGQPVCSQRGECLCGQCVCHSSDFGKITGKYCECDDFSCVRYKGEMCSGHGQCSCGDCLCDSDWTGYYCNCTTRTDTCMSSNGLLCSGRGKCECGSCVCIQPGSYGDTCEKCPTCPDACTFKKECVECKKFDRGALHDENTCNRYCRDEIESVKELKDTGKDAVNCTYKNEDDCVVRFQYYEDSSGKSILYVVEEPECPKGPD
T4 sequence (P06756 31-992 limits assumed): as the sequence (P06756 31-992 limits assumed) above
T4 sequence (P26012 43-684 limits assumed): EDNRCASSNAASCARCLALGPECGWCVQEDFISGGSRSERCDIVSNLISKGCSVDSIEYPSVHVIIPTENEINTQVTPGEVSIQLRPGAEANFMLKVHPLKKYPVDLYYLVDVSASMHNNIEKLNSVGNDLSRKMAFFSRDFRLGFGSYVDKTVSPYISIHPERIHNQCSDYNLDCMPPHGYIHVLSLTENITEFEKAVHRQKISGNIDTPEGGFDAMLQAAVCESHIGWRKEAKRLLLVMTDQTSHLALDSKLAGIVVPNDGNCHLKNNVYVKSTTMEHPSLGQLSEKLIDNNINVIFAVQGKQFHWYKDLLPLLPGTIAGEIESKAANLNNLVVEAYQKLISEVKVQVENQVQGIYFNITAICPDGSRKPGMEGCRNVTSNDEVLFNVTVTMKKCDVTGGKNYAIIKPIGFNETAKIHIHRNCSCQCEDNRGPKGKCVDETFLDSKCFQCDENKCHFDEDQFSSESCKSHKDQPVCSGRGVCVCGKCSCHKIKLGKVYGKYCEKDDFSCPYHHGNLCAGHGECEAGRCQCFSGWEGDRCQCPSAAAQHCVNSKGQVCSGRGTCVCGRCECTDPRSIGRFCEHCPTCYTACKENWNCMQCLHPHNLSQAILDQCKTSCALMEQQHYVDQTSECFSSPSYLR
T3 sequence (P06756 31-992 limits assumed): as the sequence (P06756 31-992 limits assumed) above
T3 sequence (P18084 24-719 limits assumed): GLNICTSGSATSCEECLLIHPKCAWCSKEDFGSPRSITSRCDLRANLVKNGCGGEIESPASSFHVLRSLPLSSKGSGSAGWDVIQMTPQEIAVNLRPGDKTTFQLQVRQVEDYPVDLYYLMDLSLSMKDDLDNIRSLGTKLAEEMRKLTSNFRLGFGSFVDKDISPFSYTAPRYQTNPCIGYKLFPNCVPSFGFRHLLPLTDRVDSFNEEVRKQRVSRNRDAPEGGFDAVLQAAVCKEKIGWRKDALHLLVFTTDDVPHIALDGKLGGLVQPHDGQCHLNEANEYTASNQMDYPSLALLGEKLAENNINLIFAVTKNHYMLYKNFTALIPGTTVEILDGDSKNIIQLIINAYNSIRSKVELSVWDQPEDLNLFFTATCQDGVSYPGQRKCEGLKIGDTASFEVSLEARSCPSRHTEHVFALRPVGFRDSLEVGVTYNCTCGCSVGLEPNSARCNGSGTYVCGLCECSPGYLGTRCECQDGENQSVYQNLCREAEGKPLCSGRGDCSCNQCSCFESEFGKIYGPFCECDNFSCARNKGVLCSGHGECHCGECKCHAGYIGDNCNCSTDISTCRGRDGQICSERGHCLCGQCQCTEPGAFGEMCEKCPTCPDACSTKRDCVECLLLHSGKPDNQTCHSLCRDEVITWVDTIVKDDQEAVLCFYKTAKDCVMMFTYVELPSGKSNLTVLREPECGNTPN
T1 sequence (P08648 42-995 limits assumed): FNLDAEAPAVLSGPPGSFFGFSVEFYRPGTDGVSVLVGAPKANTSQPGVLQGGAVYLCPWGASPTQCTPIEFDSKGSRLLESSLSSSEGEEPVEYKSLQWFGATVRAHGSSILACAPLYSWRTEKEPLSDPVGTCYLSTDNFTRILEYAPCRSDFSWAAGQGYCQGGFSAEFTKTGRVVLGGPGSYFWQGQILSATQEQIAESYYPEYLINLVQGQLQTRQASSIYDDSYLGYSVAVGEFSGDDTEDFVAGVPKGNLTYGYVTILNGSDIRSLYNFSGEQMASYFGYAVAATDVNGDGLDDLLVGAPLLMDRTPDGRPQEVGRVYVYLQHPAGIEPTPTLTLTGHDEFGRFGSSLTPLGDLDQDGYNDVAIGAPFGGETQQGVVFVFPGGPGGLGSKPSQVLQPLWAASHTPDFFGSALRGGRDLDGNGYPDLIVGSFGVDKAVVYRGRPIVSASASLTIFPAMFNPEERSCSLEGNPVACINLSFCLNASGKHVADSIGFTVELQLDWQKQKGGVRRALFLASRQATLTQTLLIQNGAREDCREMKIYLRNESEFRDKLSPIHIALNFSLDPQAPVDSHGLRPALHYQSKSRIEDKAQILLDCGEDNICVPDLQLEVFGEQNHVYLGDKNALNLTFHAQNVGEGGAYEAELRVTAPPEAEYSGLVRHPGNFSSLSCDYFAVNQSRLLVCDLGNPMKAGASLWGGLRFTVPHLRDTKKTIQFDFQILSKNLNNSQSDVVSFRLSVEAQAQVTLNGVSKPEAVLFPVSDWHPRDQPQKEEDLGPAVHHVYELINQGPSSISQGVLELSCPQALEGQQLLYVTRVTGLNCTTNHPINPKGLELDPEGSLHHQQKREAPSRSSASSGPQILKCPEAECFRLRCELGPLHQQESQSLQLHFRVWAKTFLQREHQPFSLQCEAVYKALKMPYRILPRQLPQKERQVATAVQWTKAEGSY
T1 sequence (P05556 21-728 limits assumed): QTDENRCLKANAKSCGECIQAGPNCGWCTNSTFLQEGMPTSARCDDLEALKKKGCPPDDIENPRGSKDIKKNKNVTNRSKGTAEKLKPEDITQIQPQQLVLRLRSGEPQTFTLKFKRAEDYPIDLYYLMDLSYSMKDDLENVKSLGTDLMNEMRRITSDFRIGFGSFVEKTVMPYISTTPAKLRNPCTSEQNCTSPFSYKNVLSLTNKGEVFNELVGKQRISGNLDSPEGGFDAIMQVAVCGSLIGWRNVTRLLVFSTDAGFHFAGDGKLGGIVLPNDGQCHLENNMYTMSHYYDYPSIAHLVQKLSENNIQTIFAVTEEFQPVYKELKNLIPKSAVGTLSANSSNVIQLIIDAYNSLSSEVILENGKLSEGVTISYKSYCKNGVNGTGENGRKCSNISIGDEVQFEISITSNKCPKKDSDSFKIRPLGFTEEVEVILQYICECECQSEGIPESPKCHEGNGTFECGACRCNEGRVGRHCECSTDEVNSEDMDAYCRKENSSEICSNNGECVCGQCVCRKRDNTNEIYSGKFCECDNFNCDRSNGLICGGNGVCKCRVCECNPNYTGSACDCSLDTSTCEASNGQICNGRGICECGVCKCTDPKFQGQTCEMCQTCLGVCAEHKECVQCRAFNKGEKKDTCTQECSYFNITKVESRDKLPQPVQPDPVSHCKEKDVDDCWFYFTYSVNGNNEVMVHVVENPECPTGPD

As for `COc1cc(C(CC(=O)O)Cc2cc(OCCc3ccc4c(n3)NCCC4)n(C)n2)cc(C23CC4CC(CC(C4)C2)C3)c1OCc1ccccc1` (stereo not shown) [Example 13, 3-[3-(1-adamantyl)-4-benzyloxy-5-methoxy-phenyl]-4-[1-methyl-5-[2-(5,6,7,8-tetrahydro-1,8-naphthyridin-2-yl)ethoxy]pyrazol-3-yl]butanoic acid], the IC50 in assay [1] worked out at 210 nM; in assay [2], 31 nM; in assay [3], 140 nM; in assay [4], 540 nM.

`COc1cc(C(CC(=O)O)Cc2cc(OCCc3ccc4c(n3)NCCC4)n(C)n2)cc(C23CC4CC(CC(C4)C2)C3)c1OC` (stereo not shown) [Example 14, 3-[3-(1-adamantyl)-4,5-dimethoxy-phenyl]-4-[1-methyl-5-[2-(5,6,7,8-tetrahydro-1,8-naphthyridin-2-yl)ethoxy]pyrazol-3-yl]butanoic acid]: the IC50 in assay [1] was determined as 47 nM; in assay [2] it was 9 nM; in assay [3], 9 nM; in assay [4], 170 nM.

On to `Cn1nc(CC(CC(=O)O)c2cc3c(c(C(C)(C)C)c2)OCO3)cc1OCCc1ccc2c(n1)NCCC2` (stereo not shown) [Example 15], for which the IC50 in assay [1] came out at 28 nM; in assay [2], 9 nM; in assay [3] it was 0.2 nM; in assay [4] it was 120 nM.

For `Cn1nc(CC(CC(=O)O)c2cc3c(c(C(C)(C)C)c2)OCCO3)cc1OCCc1ccc2c(n1)NCCC2` (stereo not shown) [Example 16, 3-(8-(tert-butyl)-2,3-dihydrobenzo[b][1,4]dioxin-6-yl)-4-(1-methyl −5-(2-(5,6,7,8-tetrahydro-1,8-naphthyridin-2-yl)ethoxy)-1H-pyrazol-3-yl) butanoic acid], the IC50 in assay [1] was determined as 18 nM; in assay [2], 7 nM; in assay [3], 0.7 nM; in assay [4], 41 nM.

For `Cn1nc(CC(CC(=O)O)c2cc(C(C)(C)C)ccc2Br)cc1OCCc1ccc2c(n1)NCCC2` (stereo not shown) [Example 17, 3-(2-bromo-5-(tert-butyl)phenyl)-4-(1-methyl-5-(2-(5,6,7,8-tetrahydro-1,8-naphthyridin-2-yl)ethoxy)-1H-pyrazol-3-yl)butanoic acid], the IC50 in assay [1] came to 120 nM; in assay [2], 930 nM; in assay [3], 230 nM; in assay [4], 110 nM.

For the compound `Cn1nc(CC(CC(=O)O)c2cc(C(C)(C)C)ccc2C#N)cc1OCCc1ccc2c(n1)NCCC2` (stereo not shown) [Example 18, 3-(5-(tert-butyl)-2-cyanophenyl)-4-(1-methyl-5-(2-(5,6,7,8-tetrahydro-1,8-naphthyridin-2-yl)ethoxy)-1H-pyrazol-3-yl)butanoic acid], the IC50 in assay [1] was 4 nM; in assay [2], 56 nM; in assay [3] it was 4 nM; in assay [4], 3 nM.

On to `Cn1nc(CC(CC(=O)O)c2cc(C(C)(C)C)ccc2F)cc1OCCc1ccc2c(n1)NCCC2` (stereo not shown) [Example 19, 3-(5-(tert-butyl)-2-fluorophenyl)-4-(1-methyl-5-(2-(5,6,7,8-tetrahydro-1,8-naphthyridin-2-yl)ethoxy)-1H-pyrazol-3-yl)butanoic acid], for which the IC50 in assay [1] was 10 nM; in assay [2], 6 nM; in assay [3], 0.6 nM; in assay [4] it was 58 nM.

Regarding `Cn1nc(CC(CC(=O)O)c2cc(C(C)(C)C)ccc2OC(F)(F)F)cc1OCCc1ccc2c(n1)NCCC2` (stereo not shown) [Example 20, 3-(5-(tert-butyl)-2-(trifluoromethoxy)phenyl)-4-(1-methyl-5-(2-(5,6,7,8-tetrahydro-1,8-naphthyridin-2-yl)ethoxy)-1H-pyrazol-3-yl)butanoic acid], the IC50 came to 9 nM in assay [1], 880 nM in assay [2], 590 nM in assay [3] and 67 nM in assay [4].

Take `COc1ccc(C2(C(F)F)CC2)cc1C(CC(=O)O)Cc1cc(OCCc2ccc3c(n2)NCCC3)n(C)n1` (stereo not shown) [Example 21, 3-[5-[1-(difluoromethyl)cyclopropyl]-2-methoxy-phenyl]-4-[1-methyl-5-[2-(5,6,7,8-tetrahydro-1,8-naphthyridin-2-yl)ethoxy]pyrazol-3-yl]butanoic acid]: the IC50 in assay [1] came to 29 nM; in assay [2] it was 340 nM; in assay [3] it was 290 nM; in assay [4], 140 nM.

On to `COc1ccc(C(C)(C)O)cc1C(CC(=O)O)Cc1cc(OCCc2ccc3c(n2)NCCC3)n(C)n1` (stereo not shown) [Example 22, 3-(5-(2-hydroxypropan-2-yl)-2-methoxyphenyl)-4-(1-methyl-5-(2-(5,6,7,8-tetrahydro-1,8-naphthyridin-2-yl)ethoxy)-1H-pyrazol-3-yl)butanoic acid], for which the IC50 turned out to be 2 nM in assay [1], 5 nM in assay [2], 10 nM in assay [3] and 79 nM in assay [4].

For `COc1ccc(C2COC2)cc1C(CC(=O)O)Cc1cc(OCCc2ccc3c(n2)NCCC3)n(C)n1` (stereo not shown) [Example 23, 3-[2-methoxy-5-(oxetan-3-yl)phenyl]-4-[1-methyl-5-[2-(5,6,7,8-tetrahydro-1,8-naphthyridin-2-yl)ethoxy]pyrazol-3-yl]butanoic acid], the IC50 turned out to be 36 nM in assay [1], 26 nM in assay [2], 29 nM in assay [3] and 190 nM in assay [4].

In the case of `COc1ccc(S(F)(F)(F)(F)F)cc1C(CC(=O)O)Cc1cc(OCCc2ccc3c(n2)NCCC3)n(C)n1` (stereo not shown) [Example 24, 3-[2-methoxy-5-(pentafluoro-sulfanyl)phenyl]-4-[1-methyl-5-[2-(5,6,7,8-tetrahydro-1,8-naphthyridin-2-yl)ethoxy]pyrazol-3-yl]butanoic acid], the IC50 stood at 25 nM in assay [1], 130 nM in assay [2], 96 nM in assay [3] and 33 nM in assay [4].

In the case of `COc1c(C(C)C)cc(C(CC(=O)O)Cc2cc(OCCc3ccc4c(n3)NCCC4)n(C)n2)cc1C(C)C` (stereo not shown) [Example 25, 3-(3,5-diisopropyl-4-methoxy-phenyl)-4-[1-methyl-5-[2-(5,6,7,8-tetrahydro-1,8-naphthyridin-2-yl)ethoxy]pyrazol-3-yl]butanoic acid], the IC50 in assay [1] was 2 nM; in assay [2], 37 nM; in assay [3], 78 nM; in assay [4] it was 18 nM.

Values taken from patent US20210284638A1 (Saint Louis University, priority 2018, published 2021).
